According to PubChem BioAssay (NCI):
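Cultured in 96-well plates, cells were exposed to test compound for 48 hours across five concentrations. TGI is the concentration that stops growth completely.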

Key:
Experiment in all cases: DTP human tumour cell line panel, 48 h
[1] = tested on: BT-549 breast
[2] = tested on: RPMI-8226 leukemia
[3] = tested on: UACC-62 melanoma
[4] = tested on: HOP-92 NSCLC
[5] = tested on: MCF7 breast
[6] = tested on: NCI-H460 lung
[7] = tested on: MOLT-4 leukemia
[8] = tested on: SK-MEL-5 melanoma
[9] = tested on: SNB-19 CNS
[10] = tested on: HL-60(TB) leukemia
[11] = tested on: HS 578T breast

Measured: TGI

C[C@]12CC[C@H]3[C@@H](CCC4=CC(=O)C=C[C@@]43OC(=O)C(F)(F)F)[C@@H]1CCC2=O
> 100 µM: [1] | [2] | [3] | [4] | [5] | [6] | [7] | [8] | [9] | [10] | [11]
